Data published in patent publication US11910794B2, “Solutions and methods for long-term pollen storage” (Monsanto Technology LLC, priority 2021, dated 2024).
Where two headings read alike, the source gives them in different places.

Assays:
pollen [1] = details: not told
Procedure: (§1) As used herein the term “impermeable” refers to a state where an isotonic solution of the solute when first mixed with pollen produces less than about 10% pollen lysis over the first 4 hours that the pollen is in contact with the solution. As used herein the term “permeable” refers to a state where an isotonic solution of the cryoprotectant when first mixed with pollen produces greater than 50% pollen lysis over the first 4 hours that the pollen is in contact with the solution.
(§2) The pollen permeability of numerous cryoprotectants was evaluated to initially identify suitable candidates for use in the pollen storage solution. Suitable cryoprotectants will be permeable to the pollen in the solution. Suitable solutes will maintain the tonicity of the pollen storage solution at a concentration between about 0.5M and about 3.0M. […] Pollen storage solutions comprising 1.0M sucrose, 10 mM MES, and 0.5M, 1.0M, or 1.5M of cryoprotectant were evaluated for pollen toxicity.

corn pollen = assay: Pollen toxicity: germination of corn pollen after incubation in pollen storage solutions; assay type: cell-based, corn (Zea mays); details: 1.0M sucrose, 10 mM MES, 0.5M, 1.0M or 1.5M cryoprotectant; 15 minutes at room temperature or 4° C.; germination plates; FIG. 1
Procedure: Pollen storage solutions comprising 1.0M sucrose, 10 mM MES, and 0.5M, 1.0M, or 1.5M of cryoprotectant were evaluated for pollen toxicity. Briefly, corn pollen was suspended in each pollen storage solution at either room temperature or 4° C. and incubated for 15 minutes. The pollen storage solutions were applied to standard germination plates using an airbrush and images of the plates were obtained to evaluate germination. A 1.0M solution of sucrose was used as the positive control.

pollen [2] = assay: Pollen permeability of cryoprotectants; details: permeability test of cryoprotectants
Procedure: as §1, §2

Compound: C[S+](C)[O-] [DMSO, dimethyl sulfoxide]
- pollen permeability of cryoprotectant (pollen [1]): among the most permeable
- germination rates (corn pollen): highest germination rates

Compound: OCCO [ethylene glycol]
- pollen permeability of cryoprotectant (pollen [2]): among the most permeable
- germination rates (corn pollen): highest germination rates
